{"source": "paper PMC4279419", "about": "“Angiostatic, tumor inflammatory and anti-tumor effects of CXCL4^47–70 and CXCL4L1^47–70 in an EGF-dependent breast cancer model” (Oncotarget, 2014)", "key": {"CD204": {"test_system": "CD204", "assay": "qPCR tumor CD204 mRNA (M2 marker)", "format": "in vivo, murine", "conditions": "2.5 μg intratumoral 3×/week; 2^−ΔΔCT", "procedure": "(§1) The RNeasy Mini Kit (QIAGEN, Venlo, the Netherlands) was used for tumor mRNA extraction. The extracted mRNA was then converted to cDNA making use of the High Capacity cDNA Reverse Transcription Kit (Applied Biosystems, Foster City, CA). Quantitative polymerase chain reactions (qPCR) based on the TaqMan principle were conducted to compare gene expression between samples. Primers and probes (Table 2; Integrated DNA Technologies, Haasrode, Belgium), were diluted to the prescribed working concentrations in RNase-free water and added to the reaction mix in a MicroAmp® fast optical 96-well reaction plate (Applied Biosystems), together with 50 ng sample cDNA per reaction. The actual thermocycler program consisted of 2 minutes on 50 °C, 10 minutes on 95 °C and 40 cycles of 15 seconds on 95 °C followed by 1 minute on 60 °C. Analysis of the obtained CT was based on the 2^−ΔΔC^T method, opting for 18S ribosomal 1 RNA as an internal control."}, "IFN-γ": {"test_system": "IFN-γ", "assay": "qPCR tumor IFN-γ mRNA", "format": "in vivo, murine", "conditions": "2.5 μg intratumoral 3×/week; 2^−ΔΔCT", "procedure": "as §1"}, "p21 in HMVEC": {"test_system": "p21 in HMVEC", "assay": "Intracellular p21 content in HMVEC (ELISA)", "format": "cell-based, human", "conditions": "15 h, mean ± s.e.m.", "procedure": "Signaling assays were slightly adapted to the signaling molecules of interest in this study. HMVEC were stimulated with EGF (20 ng/ml) as a single stimulus or in combination with the peptides CXCL4^47–70 and CXCL4L1^47–70 (0.3 to 10 μg/ml) in order to evaluate their impact on the cell cycle-arresting p21. After 15 hours, the cells were washed three times with ice-cold PBS to stop the stimulation and lysis buffer [1 mM EDTA, 0.5% (v/v) Triton-X, 10 mM NaF, 150 mM NaCl, 1 mM DTT in PBS; pH 7.2–7.4] supplemented with a protease inhibitor cocktail (Sigma) was added. Cell residue was removed from the collected lysates by centrifugation (4°C, 10 min, 1666g). Lastly, the intracellular p21 content was determined by DuoSet® IC ELISA (cat n° DYC1047, R&D Systems) while, in parallel, total protein content was measured in a bicinchoninic acid (BCA) protein assay (Pierce, Rockford, IL)."}, "CD11c": {"test_system": "CD11c", "assay": "qPCR tumor CD11c mRNA (dendritic cell marker)", "format": "in vivo, murine", "conditions": "2.5 μg intratumoral 3×/week; 2^−ΔΔCT; p=0.032, n=10", "procedure": "as §1"}, "muCCL5": {"test_system": "muCCL5", "assay": "qPCR stromal CCL5 mRNA", "format": "in vivo, murine", "conditions": "2.5 μg intratumoral 3×/week; 2^−ΔΔCT; p=0.020, n=7", "procedure": "as §1"}, "CHO/CXCR3A cells": {"test_system": "CHO/CXCR3A cells", "assay": "CXCR3A binding (flow cytometry)", "conditions": "NH2-terminally biotinylated peptides, 3 to 3000 ng/ml, data not shown", "text": "We further tried to reveal the mode of action of CXCL4^47–70 and CXCL4L1^47–70. First, we excluded that either peptide still binds/activates one of the CXCR3 isoforms, the receptors for intact CXCL4 and CXCL4L1."}, "TGM2": {"test_system": "TGM2", "assay": "qPCR tumor TGM2 mRNA (M2 marker)", "format": "in vivo, murine", "conditions": "2.5 μg intratumoral 3×/week; 2^−ΔΔCT", "procedure": "as §1"}, "[1]": {"assay": "SPR (BIAcore) binding to immobilized heparin", "conditions": "for Dissociation rate (Koff): BIAcore X100, HBS-EP+ pH 7.4; for Association rate (Kon): BIAcore X100, HBS-EP+ pH 7.4, 2 min injection, 30 μl/min", "procedure": "Next, we exploited surface plasmon resonance (SPR) analysis to assess the capacity of CXCL4^47–70 and CXCL4L1^47–70 to bind heparin immobilized to a BIAcore sensorchip, a model that mimics the binding of proteins to heparan sulphate proteoglycans associated to the cell surface. When increasing concentrations of the two peptides were injected onto the heparin surface, sensorgram overlays (not shown) allowed the calculation of association (Kon) and dissociation (Koff) rates and of Kd (as Koff/Kon ratio, Table 1). Also, equilibrium binding data were used to generate the saturation curves shown in Figure 8A and used to calculate a Kd value independently from kinetic parameters (Table 1).\nSPR measurements were performed on a BIAcore X100 instrument (GE-Healthcare, Milwaukee, WI). Research-grade SA sensorchip was used. For the study of the interaction of heparin with CXCL4^47–70 and CXCL4L1^47–70, heparin was immobilized to a BIAcore sensorchip. Briefly, 13600 Da unfractionated heparin was biotinylated at its reducing end and immobilized onto the SA streptavidin-coated sensorchip. These experimental conditions allowed the immobilization of 200 resonance units (RU) equal to 14.7 fmol/mm^2 of heparin. A sensorchip coated with streptavidin alone was used as a reference and for blank subtraction. The peptides were dissolved in 10 mM HEPES buffer pH 7.4 containing 150 mM NaCl, 3 mM EDTA, 0.05% surfactant P20 (HBS-EP+) and injected at different concentrations over the heparin or streptavidin surfaces for 2 min at a flow rate of 30 μl/min and then washed until dissociation was observed. After each run, the sensorchip was regenerated by injection of HBS-EP+ containing 2.0 M NaCl."}, "NOS2": {"test_system": "NOS2", "assay": "qPCR tumor NOS2 mRNA (M1 marker)", "format": "in vivo, murine", "conditions": "2.5 μg intratumoral 3×/week; 2^−ΔΔCT; not reaching statistical significance", "procedure": "as §1"}, "macrophage markers": {"test_system": "macrophage markers", "assay": "qPCR tumor macrophage marker expression", "format": "in vivo, murine", "conditions": "2.5 μg intratumoral 3×/week; 2^−ΔΔCT", "procedure": "as §1"}, "[2]": {"test_system": "F4/80^+ cells in MDA-MB-231 tumors", "assay": "Flow cytometry of intratumoral F4/80^+ cells", "format": "in vivo, mice", "conditions": "2.5 μg intratumoral 3×/week; n=9; control 6.85 ± 1.18% (n=10)", "procedure": "For flow cytometry, single cell suspensions were prepared from tumor biopsies using a MACS dissociator (Myltenyi Biotec, Bergisch Gladbach, Germany) and a mixture of collagenase A and dispase. Remaining cell clumps were removed by passing the cell suspension through a nylon cell strainer (70 μm mesh). Remaining red blood cells were lysed in ACK lysis buffer (0.15 M NH4Cl, 0.1 mM Na2EDTA, 10 mM KHCO3; pH = 7.2). Subsequently monocytes were identified by flow cytometry using specific antibodies, namely rat anti-mouse F4/80-PE antibody (eBiosciences, San Diego, CA)."}, "B16 melanoma": {"test_system": "B16 melanoma", "conditions": "previous study by our group; cited from earlier work", "text": "The chemokines CXCL4 and CXCL4L1 have both been attributed anti-tumoral activity as a result of angiostatic action, blockade of lymphatic vessel formation and the attraction of anti-tumoral lymphocytes. CXCL4L1 is considered to be a more powerful angiostatic and anti-tumoral agent than its homologue CXCL4, despite their striking 96% sequence identity. This functional difference has been linked to a single amino acid replacement, causing CXCL4L1 to adapt a unique carboxy-terminal 3D-structure with decreased affinity for GAGs. However, the causal link ..."}, "[3]": {"conditions": "peptide 3 μg/ml + EGF 20 ng/ml, n=9, p=0.039 (CXCL4^47–70), n=5, p=0.033 (CXCL4L1^47–70) versus EGF"}, "[4]": {"conditions": "BIAcore X100, HBS-EP+ pH 7.4, Scatchard plot analysis of equilibrium binding data, read-out: Kd at equilibrium"}, "[5]": {"conditions": "BIAcore X100, HBS-EP+ pH 7.4, from Koff/Kon ratio, read-out: Kd (Koff/Kon)"}, "[6]": {"conditions": "BIAcore X100, kinetic and equilibrium values taken together, read-out: Kd (range over both methods)"}}, "note": "Like-named read-outs stand apart in the source and are kept apart here. Where no end group is shown, it is not given here."}
{"substance": "CXCL4^47–70: synthetic human carboxy-terminal peptide restricted to the last 24 amino acids of CXCL4, Fmoc chemistry (NGRKICLDLQAPLYKKIIKKLLES; not fully specified (N-terminus))", "values": [{"measurement": "CD204 mRNA versus control", "setting": "CD204", "value": "only a modest increase"}, {"measurement": "IFN-γ mRNA versus vehicle", "setting": "IFN-γ", "value": "significantly elevated expression"}, {"measurement": "intracellular p21 relative to control (100%), with EGF", "setting": "p21 in HMVEC; peptide 1 μg/ml + EGF 20 ng/ml, n=6, p=0.039 versus EGF", "value": "106.90 ± 15.12", "unit": "%"}, {"measurement": "intracellular p21 relative to control (100%), with EGF", "setting": "p21 in HMVEC; [3]", "value": "100.02 ± 8.67", "unit": "%"}, {"measurement": "intracellular p21 relative to control (100%), with EGF", "setting": "p21 in HMVEC; peptide 10 μg/ml + EGF 20 ng/ml, n=5, p=0.005 versus EGF", "value": "125.51 ± 15.05", "unit": "%"}, {"measurement": "CD11c mRNA versus vehicle", "setting": "CD11c", "value": "more prominent"}, {"measurement": "stromal CCL5 expression versus vehicle", "setting": "muCCL5", "value": "significantly upregulated"}, {"measurement": "specific binding to CHO/CXCR3A", "setting": "CHO/CXCR3A cells", "value": "could not detect specific binding"}, {"measurement": "TGM2 mRNA versus control", "setting": "TGM2", "value": "only a modest increase"}, {"measurement": "Dissociation rate (Koff)", "setting": "[1]", "value": 0.011, "unit": "s⁻¹"}, {"measurement": "Association rate (Kon)", "setting": "[1]", "value": 670000, "unit": "M⁻¹ s⁻¹"}, {"measurement": "Kd", "setting": "[1]; [4]", "value": 72, "unit": "nM"}, {"measurement": "Kd", "setting": "[1]; [5]", "value": 16, "unit": "nM"}, {"measurement": "Kd", "setting": "[1]; [6]", "value": "16 to 72", "unit": "nM"}, {"measurement": "NOS2 mRNA versus control", "setting": "NOS2", "value": "only modestly increased"}]}
{"substance": "CXCL4L1^47–70: synthetic human carboxy-terminal peptide restricted to the last 24 amino acids of CXCL4L1, Fmoc chemistry", "values": [{"measurement": "intracellular p21 relative to control (100%), with EGF", "setting": "p21 in HMVEC; [3]", "value": "115.06 ± 17.41", "unit": "%"}, {"measurement": "macrophage marker expression versus vehicle", "setting": "macrophage markers", "value": "No significant changes in macrophage marker expression"}, {"measurement": "intratumoral F4/80^+ cells", "setting": "[2]", "value": "7.74 ± 1.35", "unit": "%"}, {"measurement": "effect in treatment of B16 melanoma", "setting": "B16 melanoma", "value": "beneficial effects of CXCL4L1^47–70"}, {"measurement": "specific binding to CHO/CXCR3A", "setting": "CHO/CXCR3A cells", "value": "could not detect specific binding"}, {"measurement": "Dissociation rate (Koff)", "setting": "[1]", "value": 0.053, "unit": "s⁻¹"}, {"measurement": "Association rate (Kon)", "setting": "[1]", "value": 52000, "unit": "M⁻¹ s⁻¹"}, {"measurement": "Kd", "setting": "[1]; [4]", "value": 1200, "unit": "nM"}, {"measurement": "Kd", "setting": "[1]; [5]", "value": 1000, "unit": "nM"}, {"measurement": "Kd", "setting": "[1]; [6]", "value": "1000 to 1200", "unit": "nM"}]}
